These are literature values, as cited in patent US20100028425A1, “PHARMACEUTICAL COMPOSITION OF ATOVAQUONE” (GLENMARK GENERICS LTD., priority 2008, published 2010).

Molecules are shown by their SMILES.

For the compound `O=C1C(O)=C([C@H]2CC[C@H](c3ccc(Cl)cc3)CC2)C(=O)c2ccccc21` [Atovaquone, trans 2-[4-(4-chlorophenyl)cyclohexyl]-3-hydroxy-1,4-naphthalenedione], the solubility in water result is recorded as “practically insoluble”.
